# Source: ChEMBL document CHEMBL1130292, “Novel cyanoguanidines with potent oral antitumour activity” (Bioorg Med Chem Lett, 1997)
# Key:
# MCF7 = test: Evaluated in vitro for antiproliferative activity against MCF-7 cell lines model of hormone dependent breast cancer; assay type: functional, cell-based; conditions: Homo sapiens
# NCI-H460 = test: Evaluated in vitro for antiproliferative activity against […] cell lines derived from large cell carcinoma of the lung; assay type: functional, cell-based; conditions: Homo sapiens
# Mus musculus [1] = test: Percent median treated tumor size to that of control tumor size in NYH treatment model in mice (in vivo) after peroral administration of compound (20 mg/kg, number of tumors 8); assay type: functional
# [2] = system: NYH small cell lung cancer (Homo sapiens); test: Evaluated in vitro for antiproliferative activity against NYH cell lines derived from small cell lung cancer
# Mus musculus [3] = test: Percent median treated tumor size to that of control tumor size in NYH treatment model in mice (in vivo) after subcutaneous administration of compound (10 mg/kg, number of tumors 7); assay type: functional
# [4] = In vitro antiproliferative activity against Fibroblasts; assay type: functional
# WALKER = test: In vitro antiproliferative activity against Walker cell line; assay type: functional, cell-based; conditions: Rattus norvegicus
# YOSHIDA = test: In vitro antiproliferative activity against Yoshida cell lines; assay type: functional, cell-based; conditions: Rattus norvegicus
# B16 = test: In vitro antiproliferative activity against B16 cell lines; assay type: functional, cell-based; conditions: Mus musculus
# [5] = system: Lewis lung carcinoma cell line; test: In vitro antiproliferative activity against Lewis cell lines; assay type: functional, cell-based; conditions: Mus musculus
# Mus musculus [6] = test: Percent median treated tumor size to that of control tumor size in NYH treatment model in mice (in vivo) after peroral administration of compound (20 mg/kg, number of tumors 9); assay type: functional
# Mus musculus [7] = test: Percent median treated tumor size to that of control tumor size in NYH treatment model in mice (in vivo) after intraperitoneal administration of compound (0.5 mg/kg, number of tumors 8); assay type: functional
# Mus musculus [8] = test: Percent median treated tumor size to that of control tumor size in NYH treatment model in mice (in vivo) after peroral administration of compound (20 mg/kg, number of tumors 11); assay type: functional
# Mus musculus [9] = test: Percent median treated tumor size to that of control tumor size in NYH treatment model in mice (in vivo) after peroral administration of compound (50 mg/kg, number of tumors 13); assay type: functional
# Mus musculus [10] = test: Percent median treated tumor size to that of control tumor size in NYH treatment model in mice (in vivo) after peroral administration of compound (20 mg/kg, number of tumors 20); assay type: functional
# Mus musculus [11] = test: Percent median treated tumor size to that of control tumor size in NYH treatment model in mice (in vivo) after peroral administration of compound (25 mg/kg, number of tumors 9); assay type: functional
IC50 (MCF7) [nM],IC50 (NCI-H460) [nM],IC50 [2] [nM],SMILES,further results
3.8,38,1.9,COc1cccc(OCCCCCC/N=C(\NC#N)Nc2ccncc2)c1,T/C (Mus musculus [1]): 42%
–,–,4.3,CC(=O)O[C@H]1C(=O)[C@@]2(C)[C@H]([C@H](OC(=O)c3ccccc3)[C@]3(O)C[C@H](OC(=O)[C@H](O)[C@@H](NC(=O)c4ccccc4)c4ccccc4)C(C)=C1C3(C)C)[C@]1(OC(C)=O)CO[C@@H]1C[C@@H]2O [PACLITAXEL],T/C (Mus musculus [3]): 48%; IC50 [4]: 0.9 nM; IC50 (WALKER): 150 nM; IC50 (YOSHIDA): 7.9 nM; IC50 (B16): 8 nM; IC50 [5]: 61 nM
8.8,59,6.1,N#CN/C(=N\CCCCCCOc1cccc(Cl)c1)Nc1ccncc1,–
230,530,52,N#CN/C(=N\CCCCCCOc1ccccc1)Nc1cccnc1,–
1.1,21,0.5,COc1ccccc1OCCCCCC/N=C(\NC#N)Nc1ccncc1,–
42,360,22,N#CN/C(=N\CCCCCCCOc1ccccc1)Nc1cccnc1,–
1.9,5.8,0.6,N#CN/C(=N\CCCCCCOc1ccccc1Cl)Nc1ccncc1,–
53,590,6.3,N#CN/C(=N\CCCCCOc1ccc(Cl)cc1)Nc1ccncc1,–
54,480,15,N#CN/C(=N\CCCCCCCCOc1ccc(Cl)cc1)Nc1ccncc1,–
31,74,5.7,N#CN/C(=N\CCCCCCOc1cccc([N+](=O)[O-])c1)Nc1ccncc1,–
37,37,12,COc1ccc(OCCCCCC/N=C(\NC#N)Nc2ccncc2)cc1,–
4.4,13,2.1,N#CN/C(=N\CCCCCCOc1cc(Cl)c(Cl)cc1Cl)Nc1ccncc1,T/C (Mus musculus [6]): 0%
120,590,52,N#CN/C(=N\CCCCCCOc1ccc([N+](=O)[O-])cc1)Nc1ccncc1,–
6.3,41,0.6,N#CN/C(=N\CCCCCCOc1ccccc1[N+](=O)[O-])Nc1ccncc1,–
39,3.5,3.9,COc1cccc2c1C(=O)c1c(O)c3c(c(O)c1C2=O)C[C@@](O)(C(C)=O)C[C@@H]3O[C@H]1C[C@H](N)[C@H](O)[C@H](C)O1 [DAUNORUBICIN],IC50 (WALKER): 47 nM; T/C (Mus musculus [7]): 105%; IC50 (YOSHIDA): 7.4 nM; IC50 (B16): 9.2 nM; IC50 [5]: 61 nM
56,69,6.2,N#CN/C(=N\CCCCCCCOc1ccc(Cl)cc1)Nc1ccncc1,–
14,27,0.6,N#CN/C(=N\CCCCCCCOc1ccccc1)Nc1ccncc1,T/C (Mus musculus [8]): 35%
31,50,2.7,N#CN=C(NCCCCCCOc1ccc(Cl)cc1)Nc1ccncc1 [CHS-828],IC50 [4]: 40 nM; IC50 (WALKER): 500 nM; T/C (Mus musculus [9]): 0%; T/C (Mus musculus [10]): 0%; T/C (Mus musculus [11]): 0%; IC50 (YOSHIDA): 140 nM; IC50 (B16): 280 nM; IC50 [5]: 560 nM
30,52,4.9,N#CN/C(=N\CCCCCCOc1ccccc1)Nc1ccncc1,–
